From paper PMC3566133, “Molecular Analysis of the Prostacyclin Receptor’s Interaction with the PDZ1 Domain of Its Adaptor Protein PDZK1” (PLoS ONE, 2013)
Each block holds one molecule with its values, some of them ahead of it. Where a SMILES comes first, the peptide text is derived from it.

How the values were obtained:
[1] = biological target: T1, PDZ1 domain of PDZK1 (Mus musculus, UniProt Q9JIL4); test: Isothermal titration calorimetry (ITC), binding to recombinant PDZ1 domain of PDZK1; conditions: VP-ITC microcalorimeter, 1.0 mM peptide titrated into 0.03 mM PDZ1, 150 mM NaCl, 25 mM Tris-pH 8.0, 0.5 mM TCEP, 20°C, triplicate, ORIGIN 7.0, read-out: Kd (binding affinity) to PDZ1
T1 construct: Recombinant wild-type PDZ1 domain (0.03 mM in 150 mM NaCl); made in house
T1 sequence (Q9JIL4 9-90 limits assumed): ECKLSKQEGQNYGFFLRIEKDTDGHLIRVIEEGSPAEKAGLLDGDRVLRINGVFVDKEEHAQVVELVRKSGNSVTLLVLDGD
Method: Expression and purification of recombinant proteins corresponding to PDZ1 domain 1(PDZ1) of PDZK1 and to full length PDZK1 has been described previously. Binding of synthetic peptides based on the C-terminus of the IP (Fig. 1) was measured using a VP-ITC microcalorimeter (GE Healthcare). Three individual peptides were used: Peptide 1 corresponded to the seven carboxy-terminal amino acids of mouse (m) IP, to which two N-terminal lysines (not part of the IP protein sequence) were added to increase peptide solubility (KK^411IAACSLC^417, ‘target peptide’); Peptide 2 consisted of an octapeptide corresponding to the carboxy-terminus of IP (K^407SEAIAAC^414) devoid of the 3 terminal amino acids (-aaX/-^415SLC^417) which would be removed by proteolytic cleavage following farnesylation. […] Titration curves were analyzed and Kd values determined using ORIGIN 7.0 software (Origin Lab) with baseline correction. […]
Figure 2 Isothermal titration calorimetric analysis of the binding of a C-terminal peptide from IP to the PDZ1 domain of PDZK1. […] Titration curves were analyzed and Kd values determined using ORIGIN 7.0 software. […]

[2] = biological target: PDZ1 of PDZK1; conditions: cited from earlier work
Excerpt: PDZK1 is a multi-PDZ domain-containing adaptor protein known to play a role in the expression, localization and function of several cell surface receptors and ion channels. One of its molecular interactants is the prostacyclin receptor (IP), whose interaction with PDZK1 was recently described. […] These interactions involve a Class I type of binding typically seen for protein interactants with carbox ... || We recently solved the structures of the interactions between the HDL receptor SR-BI with the first and with the third PDZ domains of PDZK1 by X-ray crystallography, [32]. […] The crystal structure described herein, analyzing the interaction between the carboxy-terminus of the I ...

[3] = test system: third PDZ domain (PDZ3) of PDZK1; conditions: cited from earlier work
Excerpt: We recently solved the structures of the interactions between the HDL receptor SR-BI with the first and with the third PDZ domains of PDZK1 by X-ray crystallography, [32]. […] The crystal structure described herein, analyzing the interaction between the carboxy-terminus of the I ...

[4] = biological target: the molecule itself; test: crystal structure; PDZ1-IP chimera at 1 mM, sitting drop vapor diffusion, 18°C, 0.1 M MES pH 6.5, 30% (w/v) PEG 300; 1.70 Å; the IP peptide of one molecule binds the PDZ1 of the adjacent molecule
[5] = biological target: T2, PDZK1 residues 7-106 (PDZ1 domain 7-86 with interdomain residues 87-106), the PDZK1 portion of the PDZ1-IP … (mouse, UniProt Q9JIL4 7-106); test: as above; conditions: both partners purified
T2 construct: PDZK1 residues 7-106: PDZ1 (7-86) and interdomain residues 87-106; numbering of the intact murine PDZK1; Stood in the crystal joined on one chain with m8 (the chimera m6, with Gly-Ser at its N-terminus); written apart for the pair PDZ1 with the IP peptide; also called PDZ1 portion of the structure; source: E. coli JM109, purified, as part of the PDZ1-IP chimera; not shown: GST, N-terminal, cleaved
T2 sequence (looked up): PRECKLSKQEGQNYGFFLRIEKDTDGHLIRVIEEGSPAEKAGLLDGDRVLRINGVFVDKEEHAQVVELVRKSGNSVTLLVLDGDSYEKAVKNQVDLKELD

[6] = biological target: T3, recombinant protein corresponding to PDZ domain 1 (PDZ1) of PDZK1 (mouse); test: ITC; 1.0 mM peptide injected in 10 µl aliquots into 0.03 mM PDZ1 or full length PDZK1 in the cell; 150 mM NaCl, 25 mM Tris pH 8.0, 0.5 mM TCEP, 20°C; VP-ITC
T3 sequence (Q9JIL4 whole entry, looked up): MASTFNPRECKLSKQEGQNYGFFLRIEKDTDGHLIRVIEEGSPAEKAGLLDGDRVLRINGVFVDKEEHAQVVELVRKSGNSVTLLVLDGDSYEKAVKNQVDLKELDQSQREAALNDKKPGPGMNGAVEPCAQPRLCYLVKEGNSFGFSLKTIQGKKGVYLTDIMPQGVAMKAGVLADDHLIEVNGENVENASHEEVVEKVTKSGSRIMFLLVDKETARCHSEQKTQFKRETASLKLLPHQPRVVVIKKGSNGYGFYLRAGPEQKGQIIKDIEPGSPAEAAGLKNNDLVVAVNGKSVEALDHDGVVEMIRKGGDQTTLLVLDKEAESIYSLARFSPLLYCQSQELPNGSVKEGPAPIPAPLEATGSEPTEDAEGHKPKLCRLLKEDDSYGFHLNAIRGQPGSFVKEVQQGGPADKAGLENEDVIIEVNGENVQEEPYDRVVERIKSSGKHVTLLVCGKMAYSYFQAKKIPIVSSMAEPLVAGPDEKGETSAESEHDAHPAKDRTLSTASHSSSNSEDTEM

[7] = biological target: T4, recombinant full-length PDZK1 (mouse, UniProt Q9JIL4 1-519); test: as above; conditions: both partners purified
T4 construct: PDZK1, full length, with PDZ1-PDZ4; source: recombinant, purified
T4 sequence (looked up): T3 sequence (Q9JIL4 whole entry, looked up)

Kd [1]: 8.2 µM
Molecule: CC[C@H](C)[C@H](NC(=O)[C@H](CCCCN)NC(=O)[C@@H](N)CCCCN)C(=O)N[C@@H](C)C(=O)N[C@@H](C)C(=O)N[C@@H](CS)C(=O)N[C@@H](CO)C(=O)N[C@@H](CC(C)C)C(=O)N[C@@H](CS)C(=O)O [Peptide 1] (H-KKIAACSLC-OH)

Molecule: -VLQEAKL [SR-BI, scavenger receptor class B, type I]
Kd ([2]; PDZ1 of PDZK1, read-out: Kd of SR-BI binding to PDZ1): 2.6 µM
Affinity of SR-BI/PDZ1 interaction [2]: high affinity
Affinity of SR-BI/PDZ3 interaction [3]: lower affinity

B1: chimeric PDZ1-IP recombinant protein (residues 7-106 of PDZK1 fused to the seven carboxy-terminal amino acids of mouse IP) (other)
chain: GSPRECKLSKQEGQNYGFFLRIEKDTDGHLIRVIEEGSPAEKAGLLDGDRVLRINGVFVDKEEHAQVVELVRKSGNSVTLLVLDGDSYEKAVKNQVDLKELDIAACSLC
notes: Gly-Ser dipeptide from the cloning vector (pGEX-4T-3), left at the N-terminus after thrombin digestion; PDZK1 residues 7-106: PDZ1 (7-86) and interdomain residues 87-106; numbering of the intact murine PDZK1; prostacyclin receptor (IP), mouse, seven carboxy-terminal residues 411-417; In the structure the chain is numbered 7Pro to 113Cys; also called PDZ1-IP chimera; PDZ1-IP target peptide …
binding result [4]: binds

binding result [5]: binds
B2: seven carboxy-terminal residues of mouse IP (411IAACSLC417), the IP portion of the PDZ1-IP chimera (peptide)
peptide: IAACSLC
notes: prostacyclin receptor (IP), mouse, seven carboxy-terminal residues 411-417; also numbered -6 to 0 from the C-terminal residue; Stood in the crystal fused to the C-terminus of m7 (the chimera m6); also called IP target peptide; IP peptide; source: E. coli JM109, purified, as part of the PDZ1-IP chimera

Kd [6]: 8.2 µM
Kd [7]: 60.2 ± 14.2 µM
B3: Peptide 1 (KK411IAACSLC417), seven carboxy-terminal amino acids of mouse IP with two added N-terminal lysines (peptide)
peptide: KKIAACSLC
notes: prostacyclin receptor (IP), mouse, seven carboxy-terminal residues 411-417; also called target peptide; C-terminal nonapeptide from IP; source: synthetic peptide, HPLC purified (Tufts University Core Facility)
